Earlier results as cited in patent publication US20220000967A1, “SYNTHETIC PEPTIDES INDUCING IMMUNOGENIC CELL DEATH” (SORBONNE UNIVERSITE, priority 2018, published 2022).

Tested on: murine B78 melanoma cells
Settings: melphalan killed B78 cells injected, re-challenged 10 days later with B78 viable cells; cited from earlier work

In the case of `N[C@@H](Cc1ccc(N(CCCl)CCCl)cc1)C(=O)O` [melphalan], the mice without tumor is given as 40%.
